Experimental findings from patent US6656947B2, “Antidepressant azaheterocyclylmethyl derivatives of 2,3-dihydro-1,4-dioxino[2,3-f]quinazoline” (Wyeth, priority 2001, dated 2003) are described below.

The target in data set [1] is T1, human 5-HT1A receptors (Homo sapiens, UniProt P08908).
T1 construct: expressed in transfected cells; host or cells: CHO cells
T1 sequence (P08908 1-422): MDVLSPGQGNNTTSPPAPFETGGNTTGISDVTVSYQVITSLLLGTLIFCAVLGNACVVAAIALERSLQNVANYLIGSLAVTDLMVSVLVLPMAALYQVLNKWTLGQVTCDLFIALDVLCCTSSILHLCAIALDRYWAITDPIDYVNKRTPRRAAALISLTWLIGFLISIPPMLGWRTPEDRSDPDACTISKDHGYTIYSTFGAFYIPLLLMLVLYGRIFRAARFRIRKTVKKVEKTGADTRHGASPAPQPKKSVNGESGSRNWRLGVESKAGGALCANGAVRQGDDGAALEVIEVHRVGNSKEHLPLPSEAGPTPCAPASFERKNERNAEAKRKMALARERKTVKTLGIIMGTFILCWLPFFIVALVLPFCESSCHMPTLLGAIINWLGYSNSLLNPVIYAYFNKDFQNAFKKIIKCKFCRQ
The data set is described as follows: [3H] 8-OHDPAT displacement, 5-HT1A receptor affinity. Type of data set: binding. The text has this: High affinity for the serotonin 5-HT1A receptor was established by testing the claimed compound's ability to displace [^3H] 8-OHDPAT (dipropylamino-tetralin) from the 5-HT1A serotonin receptor following a modification of the procedure of Hall et al., J. Neurochem. 44, 1685 (1985) which utilizes CHO cells stably transfected with human 5-HT1A receptors.

Data set [2] has as its target T2, cloned human 5-HT1A receptors (Homo sapiens, UniProt P08908).
T2 construct: expressed in transfected cells
T2 sequence (P08908 1-422): T1 sequence (P08908 1-422)
The data set is described as follows: 35S-GTPγS binding assay, 5-HT1A antagonist activity. The note with it: reversal of the effects of standard agonist 8-OHDPAT on 35S-GTPγS binding; for IC50: membranes with cloned human 5-HT1A receptors, read-out: 5-HT1A Function IC50; for 5-HT1A Function Imax (maximum inhibitory effect): value in parentheses. The data set is classed as biochemical. Here is the method: Antagonist activity at 5-HT1A receptors was established by using a ^35S-GTPγS binding assay similar to that used by Lazareno and Birdsall (Br. J. Pharmacol. 109: 1120, 1993), in which the test compound's ability to affect the binding of ^35S-GTPγS to membranes containing cloned human 5-HT1A receptors was determined. Agonists produce an increase in binding whereas antagonists produce no increase but rather reverse the effects of the standard agonist 8-OHDPAT. The test compound's maximum inhibitory effect is represented as the Imax, while its potency is defined by the IC50.
In general terms: GTPγS resists hydrolysis and so accumulates on activated G proteins.

Data set [3] has as its target T3, serotonin transporter (Rattus norvegicus, UniProt P31652).
T3 construct: displace ^3H-paroxetine from male rat frontal cortical membranes; from tissue; host or cells: male rat frontal cortex membranes
Put plainly: 3H-paroxetine displacement, serotonin transporter affinity. Type of data set: binding.

T3 sequence (P31652 whole entry): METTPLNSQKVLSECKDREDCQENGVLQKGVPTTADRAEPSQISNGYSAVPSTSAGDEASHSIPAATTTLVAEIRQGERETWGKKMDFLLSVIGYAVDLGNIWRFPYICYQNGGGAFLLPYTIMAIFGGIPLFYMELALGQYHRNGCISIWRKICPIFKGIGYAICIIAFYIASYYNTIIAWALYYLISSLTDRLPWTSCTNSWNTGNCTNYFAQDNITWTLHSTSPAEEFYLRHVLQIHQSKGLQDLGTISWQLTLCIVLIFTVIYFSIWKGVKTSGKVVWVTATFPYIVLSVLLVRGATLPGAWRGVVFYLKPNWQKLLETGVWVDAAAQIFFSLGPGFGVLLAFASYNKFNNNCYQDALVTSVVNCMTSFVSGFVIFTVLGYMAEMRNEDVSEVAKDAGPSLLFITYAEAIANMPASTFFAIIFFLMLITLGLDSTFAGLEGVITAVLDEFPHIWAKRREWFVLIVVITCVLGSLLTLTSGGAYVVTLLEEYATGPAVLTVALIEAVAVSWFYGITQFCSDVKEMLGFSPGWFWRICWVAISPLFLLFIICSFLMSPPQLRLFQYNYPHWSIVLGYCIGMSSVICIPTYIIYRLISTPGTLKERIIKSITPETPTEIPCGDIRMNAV

Usually melting point stands for the temperature of the solid-liquid transition. In turn, `Fc1ccc2[nH]cc(C3=CCN(CC4COc5ccc6ncncc6c5O4)CC3)c2c1` (stereo not drawn) (hydrate or solvate) [Example 1, 2-[(4-(5-Fluoro-1H-indol-3-yl)-3,6-dihydropyridin-1(2H)-yl)methyl]-2,3-dihydro[1,4]dioxino[2,3-f]quinazoline] registered a melting point of 233 to 235 °C.
In general, Ki refers to the equilibrium dissociation constant of an inhibitor or competing ligand from its target. Low values mean a stronger hold on the target, high ones a looser hold on the target. For orientation: IC50 means the concentration that gives 50% inhibition. In the case of `Fc1ccc2[nH]cc(C3=CCN(CC4COc5ccc6ncncc6c5O4)CC3)c2c1` (stereo not drawn) [Example 1, 2-[(4-(5-Fluoro-1H-indol-3-yl)-3,6-dihydropyridin-1(2H)-yl)methyl]-2,3-dihydro[1,4]dioxino[2,3-f]quinazoline], in data set [1], affinity was put at a Ki of 0.0515 µM. In data set [2], the IC50 turned out to be 0.499 µM and the “5-HT1A Function Imax (maximum inhibitory effect)” value is reported as “(94.0)”. The compound further had a Ki in data set [3] of 0.00224 µM.
Compound `Cc1nc2ccc3c(c2c[n+]1[O-])OC(CN1CC=C(c2c[nH]c4ccccc24)CC1)CO3` (stereo not drawn) [Example 3, 2-[(4-(1H-Indol-3-yl)-3,6-dihydropyridin-1(2H)-yl)methyl]-8-methyl-2,3-dihydro[1,4]dioxino[2,3-f]quinazoline 9-oxide] yielded a Ki in data set [1] of 0.0256 µM. In addition, in data set [2], the IC50 is 0.44 µM and the “5-HT1A Function Imax (maximum inhibitory effect)” value is listed as “(94.0)”. Also, in data set [3], the Ki worked out at 0.00464 µM.
As for `Cc1ncc2c3c(ccc2n1)OCC(CN1CC=C(c2c[nH]c4ccccc24)CC1)O3` (stereo not drawn) (hydrate or solvate) [Example 4, 2-[(4-(1H-Indol-3-yl)-3,6-dihydropyridin-1(2H)-yl)methyl]-8-methyl-2,3-dihydro[1,4]dioxino[2,3-f]quinazoline], the melting point lay within 198 to 202 °C.
Regarding `C1=C(c2c[nH]c3ccccc23)CCN(CC2COc3ccc4ncncc4c3O2)C1` (stereo not drawn) [Example 2, 2-[(4-(1H-Indol-3-yl)-3,6-dihydropyridin-1(2H)-yl)methyl]-2,3-dihydro[1,4]dioxino[2,3-f]quinazoline], the inhibition constant (Ki) in data set [1] came out at 0.015 µM; in data set [3], 0.00287 µM. In addition, in data set [2], the IC50 is 0.379 µM. In addition, in data set [2], the “5-HT1A Function Imax (maximum inhibitory effect)” value is reported as “(100)”.
In turn, `CCc1ncc2c3c(ccc2n1)OCC(CN1CC=C(c2c[nH]c4ccccc24)CC1)O3` (stereo not drawn) [Example 5, 2-[(4-(1H-Indol-3-yl)-3,6-dihydropyridin-1(2H)-yl)methyl]-8-ethyl-2,3-dihydro[1,4]dioxino[2,3-f]quinazoline] displayed a melting point of 203 to 211 °C. The compound further had a Ki in data set [1] of 0.00827 µM. In addition, in data set [2], the IC50 is 0.209 µM and the “5-HT1A Function Imax (maximum inhibitory effect)” value is on record as “(100)”. Further, in data set [3], the Ki is 0.00425 µM.
`C1=C(c2c[nH]c3ccccc23)CCN(CC2COc3ccc4ncncc4c3O2)C1` (stereo not drawn) (hydrate or solvate) [Example 2, 2-[(4-(1H-Indol-3-yl)-3,6-dihydropyridin-1(2H)-yl)methyl]-2,3-dihydro[1,4]dioxino[2,3-f]quinazoline] displayed a melting point of 204 to 207 °C.
Consider `Cc1ncc2c3c(ccc2n1)OCC(CN1CC=C(c2c[nH]c4ccccc24)CC1)O3` (stereo not drawn) [Example 4, 2-[(4-(1H-Indol-3-yl)-3,6-dihydropyridin-1(2H)-yl)methyl]-8-methyl-2,3-dihydro[1,4]dioxino[2,3-f]quinazoline], for which the Ki in data set [1] turned out to be 0.0024 µM. Also, in data set [2], the IC50 stood at 0.116 µM and the “5-HT1A Function Imax (maximum inhibitory effect)” value was “(100)”. Moreover, the Ki in data set [3] was 0.00226 µM.
